Test results as given in patent US7407984B2, “Tetraoxaspriro anti-malarials” (Okayama University, priority 2002, dated 2008).
Converted amounts (≈) assume the structure as drawn. Where two headings read alike, the source gives them in different places. Values belong to the molecule of their own block, whether it stands above or below them.

Experiments:
[1] = system: P. falciparum versus mouse FM3A cells; experiment: Assessment of drug efficacy (chemotherapeutic coefficient, selective toxicity against P. falciparum); type: cell-based; settings: IC50 for mouse FM3A cells ÷ EC50 for P. falciparum (values fit FCR-3)
Method: Evaluation of antimalarial activity of samples was conducted on the basis of chemotherapeutic coefficient used as an index of selective toxicity against P. falciparum. Chemotherapeutic coefficient was calculated by the following formula as a ratio of EC50 value of each sample used for P. falciparum to IC50 value of each sample used for mouse FM3A cells, and drug efficacy was assessed based on the calculated values.
Chemotherapeutic coefficient=(IC50 value of the sample for mouse […] cells)÷(EC50 value of the sample for P. falciparum)

[2] = system: chloroquine-resistant malaria parasite of P. falciparum K-1 strain; experiment: Growth inhibition screening test of chloroquine-resistant P. falciparum (K-1 strain); type: cell-based; settings: read-out: EC50 (M) Chloroquine-resistant P. falciparum K1
Method: (§1) A filter-sterilized RPMI1640 medium (pH 7.4) was added with human serum such that the serum made up 10% of the medium, and used in the experiment. P. falciparum were cultured in O2 at a concentration of 5%, CO2 at a concentration of 5% and N2 at a concentration of 90%, at a temperature of 36.5° C. Hematocrit value (ratio of volume of erythrocytes in erythrocyte suspension) was adjusted to be 5%, and initial infection rate of P. falciparum at the beginning of culture was adjusted to be 0.1%. A 24-well plate was used for culture and a medium was replaced everyday, and cultures were transferred at infection rate of 4%. A thin-layer smear was constructed and subjected to Giemsa staining or Diff-Qick staining, and followed by measurement under a microscope (oil immersion, 1000×), and then infection rate of P. falciparum was calculated according to the following formula. Infection rate of P. falciparum (%)={(number of infected erythrocytes)/(total number of erythrocytes)}×100 […]
(§2) Cultured erythrocytes infected with P. falciparum were gathered by centrifugation and washed with a medium containing serum, then noninfected erythrocytes were added, and initial infection rate was adjusted to be 0.3%. Hematocrit value in this case was 3%. […] These samples were dissolved into sterilized water, dimethylformamide (DMF) or dimethylsulfoxide (DMSO), and sample solutions at prescribed concentration were prepared. 5 to 10 μl each of the sample solutions was added to a 24-well culture plate. For each sample, 2 to 3 experiments were conducted. In addition, for control, sterilized water, DMF or DMSO was added by 10 μl/well. […] The culture plate was put into a CO2—O2—N2 (5%, 5%, 90%) incubator and culture was conducted for 72 hours, then a thin-layer smear was constructed for each well, Giemsa staining or Diff-Qick staining was conducted, followed by measurement under a microscope (oil immersion, 1000×), and then infection rates of P. falciparum in a group supplemented with a reagent and in controls were calculated. The growth rate was calculated according to the following formula based on the infection rate of P. falciparum as calculated above. Growth rate (%)={([b]−[a])/([c]−[a])}×100 […]
(§3) a: initial infection rate b: infection rate when sample solution added c: infection rate of a control
(§4) EC50 is a value expressed by molar concentration: when growth rate of control wherein sample solution is not added to a medium of P. falciparum is defined as 100%, EC50 indicates a concentration of a sample wherein infection rate of P. falciparum in control is inhibited by 50% due to the addition of sample solution.

[3] = system: P. falciparum FCR-3 strain (ATCC30932); experiment: Growth inhibition screening test of P. falciparum (FCR-3 strain); type: cell-based; settings: read-out: EC50 (M) P. falciparum FCR-3
Method: as §1, §2, §3, §4

[4] = system: mouse breast cancer-derived FM3A cells (F28-7 strain); experiment: Growth inhibition test of mouse FM3A cells; type: cell-based; settings: read-out: IC50 (M) Cancer cells of mice FM3A
Method: An F28-7 strain, a wild-type strain of mouse breast cancer-derived FM3A cells, was used. Immobilized fetal bovine serum was added to an ES medium such that the serum made up 2% of the medium, and culture was conducted in CO2 at a concentration of 5%, and at 37° C. […] Cells which had been precultured and entered to logarithmic growth phase were diluted to be 5×10^4 cells/ml in the medium. A sample prepared at the time of the measurement of antimalarial activity of P. falciparum was used. […] For each test sample, 2 to 3 experiments were conducted, and wells added with 10 μl each of sterilized water, DMF and DMSO were tested at the same time as controls. Next, a prepared suspension of cultured cells was added, by 990 to 995 μl each, and when medium and the like were added, the final concentration of test samples became 1×10^−4 to 1×10^−6M. By pipetting gently, these substances were uniformly suspended in media.
Based on the counted number of cells, growth rate was calculated by the following formula. Growth rate (%)={([C]−[A])/([B]−[A])}×100
A: the number of cells at the beginning
B: the number of cells in a control after 48 hours
C: the number of cells 48 hours after sample addition
Based on the calculated growth rate, IC50, cell growth inhibitory concentration, was calculated, and cytotoxicity of samples was evaluated as cell growth inhibitory activity.

[5] = system: murine malaria parasites (P. berghei NK65 strain); experiment: Parasite suppression test using mice infected with murine malaria parasite (4-day suppressive test); type: in vivo; settings: for ED50 / cure of infected mice / ED90: mice infected with P. berghei NK65; for ED50 / ED90: once a day for 4 days, orally or intraperitoneally in olive oil; for ED50: 50% of parasites suppressed; for cure of infected mice: N251 and N89: with 50 mg/kg; for ED90: 90% of parasites suppressed
[6] = physchem
From the text: As to 6-(1,2,6,7-tetraoxaspiro[7.11]nonadecy-4-yl)hexane-1-ole (N251), 5-(1,2,6,7-tetraoxaspiro[7.11]nonadecy-4-yl)pentane-1-carboxylic acid (N251-1), succinic acid mono-[6-(1,2,6,7-tetraoxaspiro[7.11]nonadecy-4-yl)hexyl]ester (N251-2), all obtained in Example 9, and 1,2,6,7-tetraoxaspiro[7.11]nonadecane (N89), artemisinin, artesunate (trade name: Guilin No. 2, Pharmaceutical Factory, Guangxi, China) as comparative examples, solubility to 5% of sodium bicarbonate water and dimethylsulfoxide (DMSO) was measured.

[7] = Plasmodium falciparum, K1 chloroquine-resistant strain, 72 hours culture
[8] = Plasmodium falciparum, FCR-3 strain, 72 hours culture, infection rate by Giemsa or Diff-Qick staining
[9] = Mus musculus, FM3A cells, 48 hours culture, cell count, cytotoxicity
[10] = Plasmodium berghei, 96 h, read-out: ED50

- EC50 [3, 8]: 1e-08 M
- solubility to DMSO [6]: insoluble
Structure (SMILES): C[C@@H]1CC[C@H]2[C@@H](C)C(=O)O[C@@H]3O[C@@]4(C)CC[C@@H]1[C@]32OO4 [Artemisinin, artemisinin]
- IC50/EC50 Chemotherapeutic coefficient [1]: 1000
- EC50 [2, 7]: 1.3e-08 M
- IC50 [4, 9]: 1e-05 M
- ED50 [5, 10]: 6 mg/kg
- cure of infected mice [5]: Not cured
- ED90 [5]: 10.3 mg/kg

Structure (SMILES): O=C(O)CCC(=O)OCCCCCCC1COOC2(CCCCCCCCCCC2)OOC1 [N251-2, succinic acid mono-[6-(1,2,6,7-tetraoxaspiro[7.11]nonadecy-4-yl)hexyl]ester]
- solubility to 5% of sodium bicarbonate water [6]: 100 mg/mL

Structure (SMILES): OCCCCCCC1COOC2(CCCCCCCCCCC2)OOC1 [N251, 6-(1,2,6,7-tetraoxaspiro[7.11]nonadecy-4-yl)hexane-1-ole]
- IC50/EC50 Chemotherapeutic coefficient [1]: 348
- EC50 ([2]; K1 chloroquine-resistant strain, 72 hours culture): 2e-08 M
- EC50 ([3]; FCR-3 strain, 72 hours culture, infection rate by Giemsa or Diff-Qick staining): 2.3e-08 M
- IC50 ([4]; FM3A cells, 48 hours culture, cell count, cytotoxicity): 8e-06 M
- ED50 (mg/kg) on N89 basis ([5]; ED50 of N251 converted to N89 basis (molar comparison)): [<7 on N89 basis] mg/kg
- ED90 (mg/kg) on N89 basis ([5]; ED90 of N251 converted to N89 basis (molar comparison)): [13 on N89 basis] mg/kg
- cure of infected mice [5]: All cured
- ED50 [5]: <10 mg/kg
- ED90 [5]: 18 mg/kg
- solubility to DMSO [6]: insoluble

- EC50 [3, 8]: 2.5e-08 M
- solubility to DMSO [6]: insoluble
Structure (SMILES): C1CCCCCC2(CCCCC1)OOCCCOO2 [N89, 1,2,6,7-tetraoxaspiro[7.11]nonadecane]
- IC50/EC50 Chemotherapeutic coefficient [1]: 328
- EC50 [2, 7]: 2.6e-08 M
- IC50 [4, 9]: 8.2e-06 M
- ED50 [5, 10]: 12 mg/kg
- cure of infected mice [5]: All cured
- ED90 [5]: 20 mg/kg

Structure (SMILES): CCN(CC)CCCC(C)Nc1ccnc2cc(Cl)ccc12 (centres unmarked) [Chloroquine, chloroquine]
- EC50 ([2]; Plasmodium falciparum, K1, 72 h): 1.3e-07 M
- EC50 ([3]; Plasmodium falciparum, 72 h): 1.8e-08 M
- IC50 ([4]; Mus musculus, FM3A, 48 h): 3.2e-05 M

- solubility ([6]; aqueous buffer): 100 mg/mL (≈ 260 mM)
Structure (SMILES): C[C@H]1[C@H](OC(=O)CCC(=O)O)O[C@@H]2O[C@@]3(C)CC[C@H]4[C@H](C)CC[C@@H]1[C@@]24OO3 [artesunate]

Structure (SMILES): O=C(O)CCCCCC1COOC2(CCCCCCCCCCC2)OOC1 [N251-1, 5-(1,2,6,7-tetraoxaspiro[7.11]nonadecy-4-yl)pentane-1-carboxylic acid]
- solubility to 5% of sodium bicarbonate water ([6]; 5% of sodium bicarbonate water): 50 mg/mL
